Here are results for seven compounds from US9944613B2, “Fumagillol spirocyclic compounds and fused bicyclic compounds and methods of making and using same” (Zafgen, Inc., priority 2015, dated 2018).

The test system of test [1] is rat DIO model (Sprague Dawley rats on high fat diet). Kind of test: 11 day rat DIO model, weight loss vs. vehicle. The class given is in vivo. The following applies: for inhibition in vivo at 0.3 mg/kg: Rattus norvegicus, 264 h, 0.3 mpk sc once a day for 11 days. An excerpt: The objective of this study design is to investigate the efficacy of disclosed compounds in an 11 day rat DIO model used to screen compounds for pharmacologic efficacy on endpoints related to obesity and metabolism. Effects on body weight, food intake, hematology and blood chemistries were the primary readouts of this study design. Male Sprague Dawley rats, approximately 8 weeks of age, were ordered from a certified vendor and housed on irradiated corncob bedding in micro-isolator cages, on a 12-hour light-dark cycle (0700-1900) at 68-74° F. and 30-70% humidity. Rats were fed Research Diets D12451 (45% High Fat) and provided water ad libitum. Rats were received and housed in the facility for at least two or three weeks prior to start of test article administration. On Day −4 or −3, rats were randomized into study groups based on body weight and body weights were continued to be recorded daily for the duration of the study. Daily food intake was assessed starting on Study Day −2 by weighing the hopper including the food to avoid loss of food in transfer.
(§1) Compounds were formulated into a 100% DMSO stock (at 9 mg/mL) prior to the start, and further diluted into the target working concentration using the vehicle of 10% DMSO in water. Prior to test article administration, starting on Day −3 a dosing acclimation occured with all animals receiving a subcutaneous injection of vehicle (10% DMSO) only for 3 days. Starting on Day 1, test compounds or vehicle were administered based on individual body weight, subcutaneously, once a day for 11 days. All animals were sacrificed on Day 11, approximately 2 hours following the final dosing on Day 11. After sacrifice, whole blood was collected and analyzed for hematology and blood chemistry parameters.
(§2) Compounds were tested for weight loss vs. vehicle at 0.3 and 1.0 mpk sc (mg per kg animal weight delivered subcutaneously), and the results are shown in Table 2 below.

The subject of test [2] is Diet Induced Obese (DIO) C57BL/6 mice. Kind of test: 10 day DIO mouse model, weight loss vs. vehicle. In kind it is in vivo. The following applies: 240 h, 0.3 mpk sc once a day for 10 days.
Text: The objective of this study design was to investigate the efficacy of disclosed compounds in a 10 day DIO mouse model. Effects on body weight, food intake, hematology and blood chemistry were the primary readouts of this study design. Male, Diet Induced Obese (DIO) C57BL/6 mice, 19-21 weeks of age (13-15 weeks on high fat diet) were ordered from a certified vendor and upon receipt were housed on irradiated corncob bedding in micro-isolator cages on a 12-hour light-dark cycle (0700-1900) at 68-74° F. and 30-70% humidity. Mice were fed Research Diets D12492 (60% Kcal fat, 20% Kcal carbohydrate and 20% protein) and provided water ad libitum. DIO mice were received and housed in the facility for approximately two weeks prior to the start of test article administration. On Day −4 or −3, mice were randomized into study groups based on body weight and body weights were continued to be recorded daily for the duration of the study. Daily food intake was assessed starting on Study Day −2 by weighing of the food with hopper together to avoid loss of food in transfer.
as §1, with “for 10” for “for 11”, “All mice” for “All animals”, “11, 24” for “11, approximately 2”, “Day 10.” for “Day 11.”
as §2

The target in a further test is T1, recombinant human MetAP2 (Homo sapiens, UniProt P50579).
T1 construct: Flag; made in house
The test is described as follows: Inhibition of recombinant human MetAP2 activity (MAS peptide / amino acid oxidase / Amplex assay). The class given is biochemical. The following applies: Flag tagged human recombinant MetAP2, 25 minutes at 25° C.; read-out: MetAP2 IC50. The procedure:
Compounds are tested for their capacity to inhibit recombinant human MetAP2 activity using the following assay.
Flag tagged Human recombinant MetAP2 expressed and isolated for use as the enzyme source. 10 mM stock solutions of compounds were prepared in 100% DMSO and further diluted in 100% DMSO required concentration to 1 mM stocks. The stock compound solutions and DMSO vehicle controls were diluted to target final compound concentrations using assay buffer to a final concentration of 50 mM HEPES containing 100 mM NaCl, pH adjusted to 7.5. The MAS peptide was formulated to a 7.5 mM stock in distilled water and prior to use further diluted 1:4. […] 40 μl of enzyme was mixed with 100 μl of MnCl2 then further diluted in assay buffer to a final concentration of 16 μg/ml. To test for compound effect on MetAP2 enzyme activity, 5 μl of test compound, 10 μl of MAS substrate/amino acid oxidase mixture, 10 μl of MetAP2 was added to test wells in a 384 well black plate with blank wells containing no enzyme, replaced with 10 μl of assay buffer. All compounds were tested in duplicate on two occasions on the same day.
The plate was sealed with a TopSeal A cover and mixed briefly on an orbital mixer at 900 rpm. The plate was incubated for a further 25 minutes at 25° C. A 5× stock of Amplex buffer was prepared (0.25M sodium phosphate, pH 7.4) and stored at 4° C. When preparing for use the stock was diluted with distilled water. […] Horse radish peroxidase was diluted in […] of Amplex buffer, 100 μl of this was combined with 50 μl of Amplex Ultrared in […] of 1× Amplex buffer to generate sufficient detection reagent for a 384 well plate. 25 μl detection reagent was added to each well of the test plate, which was re-sealed and mixed briefly on an orbital shaker. The plate was transferred to an Envision Multi-label reader and RFU measured corresponding to excitation 531 nm and emission 595 nm. At the end of the MetAP2 incubation 25 μl Amplex/HRP mixture per well was added and the plate read plate on a plate reader.

T1 sequence (P50579 whole entry): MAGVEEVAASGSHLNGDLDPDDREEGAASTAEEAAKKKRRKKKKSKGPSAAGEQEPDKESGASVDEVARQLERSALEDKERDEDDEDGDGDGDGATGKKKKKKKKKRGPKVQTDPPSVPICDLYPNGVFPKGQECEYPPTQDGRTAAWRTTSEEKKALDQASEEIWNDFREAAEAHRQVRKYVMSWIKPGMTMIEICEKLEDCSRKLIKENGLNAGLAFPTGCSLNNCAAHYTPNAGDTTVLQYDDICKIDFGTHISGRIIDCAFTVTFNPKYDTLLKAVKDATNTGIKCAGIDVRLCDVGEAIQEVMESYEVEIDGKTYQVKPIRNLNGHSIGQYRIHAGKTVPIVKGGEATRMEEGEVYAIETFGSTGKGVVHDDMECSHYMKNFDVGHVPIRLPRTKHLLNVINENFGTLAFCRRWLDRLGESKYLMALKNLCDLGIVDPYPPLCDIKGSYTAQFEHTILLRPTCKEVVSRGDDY

For the compound `CO[C@@H]1[C@H](OC(=O)N2CCC3(CCOCC3)CC2)CC[C@]2(CO2)[C@H]1[C@@]1(C)O[C@@H]1CC=C(C)C` [Example 1, (3R,4S,5S,6R)-5-methoxy-4-((2R,3R)-2-methyl-3-(3-methylbut-2-enyl)oxiran-2-yl)-1-oxaspiro[2.5]octan-6-yl 3-oxa-9-azaspiro[5.5]undecane-9-carboxylate], in test [1] (1.0 mpk sc once a day for 11 days), the “Rat @ 1.0 mpk sc (%)” value was found to be 16.3%. The inhibition in vivo at 0.3 mg/kg in test [1] amounted to 10.3%; in test [2] it was 17%. Further, the IC50 on recombinant human MetAP2 lay in the range of 50 to 500 nM.

`CO[C@@H]1[C@H](OC(=O)N2C[C@H]3COC[C@H]3C2)CC[C@]2(CO2)[C@H]1[C@@]1(C)O[C@@H]1CC=C(C)C` [Example 13, (3aR,6aS)-((3R,4S,5S,6R)-5-methoxy-4-((2R,3R)-2-methyl-3-(3-methylbut-2-enyl)oxiran-2-yl)-1-oxaspiro[2.5]octan-6-yl) tetrahydro-1H-furo[3,4-c]pyrrole-5(3H)-carboxylate]: the inhibition in vivo at 0.3 mg/kg was determined as 3.1% in test [1] and 16.9% in test [2].

On to `CO[C@@H]1[C@H](OC(=O)N2CCC3(CCN(CC(F)F)CC3)CC2)CC[C@]2(CO2)[C@H]1[C@@]1(C)O[C@@H]1CC=C(C)C` [Example 14, (3R,4S,5S,6R)-5-methoxy-4-((2R,3R)-2-methyl-3-(3-methylbut-2-enyl)oxiran-2-yl)-1-oxaspiro[2.5]octan-6-yl 9-(2,2-difluoroethyl)-3,9-diazaspiro[5.5]undecane-3-carboxylate], for which the inhibition in vivo at 0.3 mg/kg was found to be 11.6% in test [1] and 23.3% in test [2].

`CO[C@@H]1[C@H](OC(=O)N2CCC3(CCN(C)CC3)C2)CC[C@]2(CO2)[C@H]1[C@@]1(C)O[C@@H]1CC=C(C)C` [Example 26, (3R,4S,5S,6R)-5-methoxy-4-((2R,3R)-2-methyl-3-(3-methylbut-2-enyl)oxiran-2-yl)-1-oxaspiro[2.5]octan-6-yl 8-methyl-2,8-diazaspiro[4.5]decane-2-carboxylate] showed an inhibition in vivo at 0.3 mg/kg in test [2] of 5.6%. For the same compound, the IC50 on recombinant human MetAP2 is under 50 nM.

`CNC(=O)[C@H]1[C@@H]2CN(C(=O)O[C@@H]3CC[C@]4(CO4)[C@@H]([C@@]4(C)O[C@@H]4CC=C(C)C)[C@@H]3OC)C[C@@H]21` [Example 32, (1R,5S,6R)-(3R,4S,5S,6R)-5-methoxy-4-((2R,3R)-2-methyl-3-(3-methylbut-2-en-1-yl)oxiran-2-yl)-1-oxaspiro[2.5]octan-6-yl 6-(methylcarbamoyl)-3-azabicyclo[3.1.0]hexane-3-carboxylate] yielded an inhibition in vivo at 0.3 mg/kg in test [2] of 4%. For the same compound, the IC50 on recombinant human MetAP2 was 50 to 500 nM.

With `CO[C@@H]1[C@H](OC(=O)N2C[C@@H]3[C@H](C2)[C@H]3C(=O)N(C)C)CC[C@]2(CO2)[C@H]1[C@@]1(C)O[C@@H]1CC=C(C)C` [Example 33, (1R,5S,6R)-(3R,4S,5S,6R)-5-methoxy-4-((2R,3R)-2-methyl-3-(3-methylbut-2-en-1-yl)oxiran-2-yl)-1-oxaspiro[2.5]octan-6-yl 6-(dimethylcarbamoyl)-3-azabicyclo[3.1.0]hexane-3-carboxylate], the inhibition in vivo at 0.3 mg/kg in test [2] came to 13.8%. In addition, at recombinant human MetAP2, the IC50 lay in the range of 50 to 500 nM.

For `CO[C@@H]1[C@H](OC(=O)N2C[C@@H]3[C@H](C2)[C@H]3C(N)=O)CC[C@]2(CO2)[C@H]1[C@@]1(C)O[C@@H]1CC=C(C)C` [Example 34, (1R,5S,6R)-(3R,4S,5S,6R)-5-methoxy-4-((2R,3R)-2-methyl-3-(3-methylbut-2-en-1-yl)oxiran-2-yl)-1-oxaspiro[2.5]octan-6-yl 6-carbamoyl-3-azabicyclo[3.1.0]hexane-3-carboxylate], in test [2], the inhibition in vivo at 0.3 mg/kg worked out at 3%. For the same compound, on recombinant human MetAP2, the IC50 is under 50 nM.

By inhibition in vivo is commonly meant the change of the read-out against control, counted positive when it falls. Read a low inhibition in vivo as little suppression. Broadly, the IC50 is the concentration needed to halve the response being measured.
